In one experiment the test system is HeLa. Nature of the experiment: Cytotoxicity against human HeLa cells by SRB method. The experiment is classed as functional, cell-based. On the technique in general: The SRB assay estimates cell density from bound dye.
Another experiment has as its system K562. Nature of the experiment: Cytotoxicity against human K562 cells by MTT method. It is filed as functional, cell-based. A general note: Tetrazolium dyes change colour on reduction, which living cells bring about.
In the next experiment the test system is HCT-116. Nature of the experiment: Cytotoxicity against human HCT116 cells by SRB method.
The next experiment relates to HL-60. Nature of the experiment: Cytotoxicity against human HL60 cells by MTT method.
A further experiment deals with A549. Nature of the experiment: Cytotoxicity against human A549 cells by SRB method.
A further experiment concerns MCF7. The experiment is described as follows: Cytotoxicity against human MCF7 cells by SRB method. The experiment is classed as functional, cell-based.

As a reminder, the IC50 is the concentration that gives 50% inhibition. The low end stands for inhibition by little substance, the high end for a need for much substance.

Regarding `CC[C@H](C)/C=C/C=C(\C)C[C@@H](C)/C=C/C=C/[C@H]1OC(=O)[C@H](O)[C@@H]2O[C@]12C`, the IC50 in the experiment with HeLa, with K562, in the experiment with HCT-116, in the experiment on HL-60, in the experiment with A549 and in the experiment on MCF7 was greater than 50 µM each time.
With `COC(=O)[C@@H]1O[C@@H](/C=C/C=C/[C@H](C)C/C(C)=C/C=C/[C@@H](C)CCO)[C@@]2(C)O[C@@H]12`, the IC50 in the experiment on HeLa, in the experiment with K562, in the experiment on HCT-116, with HL-60, in the experiment on A549 and in the experiment on MCF7 was greater than 50 µM each time.
`CC[C@H](C)/C=C/C=C(\C)C[C@@H](C)/C=C/C=C/[C@H]1OC(=O)C=C[C@]1(C)O`: the half-inhibitory concentration (IC50) was determined as 5.5 µM with HeLa; 2.9 µM in the experiment on K562; 1.4 µM with HCT-116; 1.2 µM in the experiment with HL-60; 5.1 µM in the experiment on A549; 9.8 µM in the experiment with MCF7.
For the molecule `CC[C@H](C)/C=C/C=C(\C)C[C@@H](C)/C=C/C=C/[C@@H]1O[C@@H](C(=O)OC)[C@@H]2O[C@]12C`, the IC50 in the experiment with HeLa, in the experiment on K562, with HCT-116, in the experiment on HL-60, in the experiment on A549 and in the experiment with MCF7 was greater than 50 µM throughout.
Consider `CC[C@@H](/C=C/C=C(\C)C[C@@H](C)/C=C/C=C/[C@@H]1O[C@@H](C(=O)OC)[C@@H]2O[C@]12C)CO`, for which the IC50 in the experiment with HeLa, with K562, in the experiment with HCT-116, with HL-60, with A549 and with MCF7 was greater than 50 µM each time.
For `COc1cccc2c1C(=O)c1c(O)c3c(c(O)c1C2=O)C[C@@](O)(C(=O)CO)C[C@@H]3O[C@H]1C[C@H](N)[C@H](O)[C@H](C)O1` [DOXORUBICIN], the IC50 in the experiment with HeLa stood at 0.5 µM; in the experiment with K562, 0.6 µM; with MCF7 it was 0.6 µM.
